In the supplement of paper PMC6045584:
± gives the standard deviation of the averaged measurements.

How the values were obtained:
PACLITAXEL [1] = compound: T1, CC(=O)O[C@H]1C(=O)[C@@]2(C)[C@H]([C@H](OC(=O)c3ccccc3)[C@]3(O)C[C@H](OC(=O)[C@H](O)[C@@H](NC(=O)c4ccccc4)c4ccccc4)C(C)=C1C3(C)C)[C@]1(OC(C)=O)CO[C@@H]1C[C@@H]2O [PACLITAXEL]; experiment: surviving fraction relative to DMSO-only wells; higher = less growth inhibition; conditions: exposure time: 5 days
In short: (§1)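 Log-phase tumour cells were seeded at 250–500 per well in 384-well plates and, from 24 hours after seeding, exposed continuously for five days to inhibitors at 0.5, 1, 5, 10, 50, 100, 500 and 1000 nM. Surviving fraction is CellTiter-Glo luminescence normalised to the median of DMSO-only wells. Luminescence was measured after 10 minutes at room temperature, and only lines screened three times with replicate Pearson r >0.7 and median Z' >0.3 were kept.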

CARBOPLATIN [2] = compound: T2, O=C(O)C1(C(=O)O)CCC1.[NH2-].[NH2-].[Pt+2] [CARBOPLATIN]; experiment: as above; conditions: exposure time: 5 days
In short: as §1

[3] = compound: CC(=O)c1c(C)c2cnc(Nc3ccc(N4CCNCC4)cn3)nc2n(C2CCCC2)c1=O; experiment: as above; conditions: exposure time: 5 days
In short: as §1

CELECOXIB [4] = compound: T3, Cc1ccc(-c2cc(C(F)(F)F)nn2-c2ccc(S(N)(=O)=O)cc2)cc1 [CELECOXIB]; experiment: as above; conditions: exposure time: 5 days
In short: as §1

OSI-906 [5] = compound: T4, C[C@]1(O)C[C@@H](c2nc(-c3ccc4ccc(-c5ccccc5)nc4c3)c3c(N)nccn32)C1 [OSI-906]; experiment: as above; conditions: exposure time: 5 days
In short: as §1

[6] = compound: CC(=O)NCC(=O)N1[C@@H]2CC[C@H]1c1ccc(Nc3ncc(C(F)(F)F)c(NC4CCC4)n3)cc12; experiment: as above; conditions: exposure time: 5 days
In short: as §1

YM155 [7] = compound: T5, COCC[n+]1c2c(n(Cc3cnccn3)c1C)C(=O)c1ccccc1C2=O [YM155]; experiment: as above; conditions: exposure time: 5 days
In short: as §1

GEFITINIB [8] = compound: T6, COc1cc2ncnc(Nc3ccc(F)c(Cl)c3)c2cc1OCCCN1CCOCC1 [GEFITINIB]; experiment: as above; conditions: exposure time: 5 days
In short: as §1

CAMPTOTHECIN [9] = compound: T7, CC[C@@]1(O)C(=O)OCc2c1cc1n(c2=O)Cc2cc3ccccc3nc2-1 [CAMPTOTHECIN]; experiment: as above; conditions: exposure time: 5 days
In short: as §1

PACLITAXEL [10] = compound: T1, PACLITAXEL; experiment: area under dose-response curve of surviving fraction (unscaled, Aref=0) (surviving fraction x log10(nM)); higher = more resistant; conditions: exposure time: 5 days; dose range 0.5-1000 nM
In short: (§2)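 Tumour cell lines in 384-well plates were exposed to eight inhibitor concentrations, from 0.5 to 1000 nM, for five days, and viability was read by CellTiter-Glo luminescence in three screens per line. Signals were normalised to DMSO-only wells, and 3-parameter logistic regression in the drc R package fitted dose-response survival curves to the surviving fractions. Area under the curve is given as the unscaled activity area. That area is taken over log10 dose with Aref = 0.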

CARBOPLATIN [11] = compound: T2, CARBOPLATIN; experiment: as above; conditions: exposure time: 5 days; dose range 0.5-1000 nM
In short: as §2

[12] = compound: CC(=O)c1c(C)c2cnc(Nc3ccc(N4CCNCC4)cn3)nc2n(C2CCCC2)c1=O; experiment: as above; conditions: exposure time: 5 days; dose range 0.5-1000 nM
In short: as §2

CELECOXIB [13] = compound: T3, CELECOXIB; experiment: as above; conditions: exposure time: 5 days; dose range 0.5-1000 nM
In short: as §2

OSI-906 [14] = compound: T4, OSI-906; experiment: as above; conditions: exposure time: 5 days; dose range 0.5-1000 nM
In short: as §2

[15] = compound: CC(=O)NCC(=O)N1[C@@H]2CC[C@H]1c1ccc(Nc3ncc(C(F)(F)F)c(NC4CCC4)n3)cc12; experiment: as above; conditions: exposure time: 5 days; dose range 0.5-1000 nM
In short: as §2

YM155 [16] = compound: T5, YM155; experiment: as above; conditions: exposure time: 5 days; dose range 0.5-1000 nM
In short: as §2

GEFITINIB [17] = compound: T6, GEFITINIB; experiment: as above; conditions: exposure time: 5 days; dose range 0.5-1000 nM
In short: as §2

CAMPTOTHECIN [18] = compound: T7, CAMPTOTHECIN; experiment: as above; conditions: exposure time: 5 days; dose range 0.5-1000 nM
In short: as §2

Test System: SG43 HEADNECK
- surviving fraction (PACLITAXEL [1]; 0.5 nM): 0.793 ± 0.2
- surviving fraction (PACLITAXEL [1]; 1 nM): 0.849 ± 0.078
- surviving fraction (PACLITAXEL [1]; 5 nM): 0.588 ± 0.022
- surviving fraction (PACLITAXEL [1]; 10 nM): 0.619 ± 0.067
- surviving fraction (PACLITAXEL [1]; 50 nM): 0.471 ± 0.0079
- surviving fraction (PACLITAXEL [1]; 100 nM): 0.467 ± 0.091
- surviving fraction (PACLITAXEL [1]; 500 nM): 0.477 ± 0.07
- surviving fraction (PACLITAXEL [1]; 1000 nM): 0.433 ± 0.038
- surviving fraction (CARBOPLATIN [2]; 0.5 nM): 1.14 ± 0.14
- surviving fraction (CARBOPLATIN [2]; 1 nM): 1.13 ± 0.3
- surviving fraction (CARBOPLATIN [2]; 5 nM): 0.915 ± 0.18
- surviving fraction (CARBOPLATIN [2]; 10 nM): 1.15 ± 0.23
- surviving fraction (CARBOPLATIN [2]; 50 nM): 0.826 ± 0.071
- surviving fraction (CARBOPLATIN [2]; 100 nM): 0.996 ± 0.19
- surviving fraction (CARBOPLATIN [2]; 500 nM): 0.994 ± 0.16
- surviving fraction (CARBOPLATIN [2]; 1000 nM): 1.07 ± 0.14
- surviving fraction ([3]; 0.5 nM): 0.92 ± 0.039
- surviving fraction ([3]; 1 nM): 1 ± 0.12
- surviving fraction ([3]; 5 nM): 0.862 ± 0.16
- surviving fraction ([3]; 10 nM): 0.855 ± 0.059
- surviving fraction ([3]; 50 nM): 0.73 ± 0.11
- surviving fraction ([3]; 100 nM): 0.745 ± 0.12
- surviving fraction ([3]; 500 nM): 1.02 ± 0.12
- surviving fraction ([3]; 1000 nM): 0.766 ± 0.28
- surviving fraction (CELECOXIB [4]; 0.5 nM): 0.96 ± 0.3
- surviving fraction (CELECOXIB [4]; 1 nM): 1.22 ± 0.49
- surviving fraction (CELECOXIB [4]; 5 nM): 0.942 ± 0.31
- surviving fraction (CELECOXIB [4]; 10 nM): 0.929 ± 0.28
- surviving fraction (CELECOXIB [4]; 50 nM): 0.938 ± 0.21
- surviving fraction (CELECOXIB [4]; 100 nM): 1.14 ± 0.051
- surviving fraction (CELECOXIB [4]; 500 nM): 1.04 ± 0.035
- surviving fraction (CELECOXIB [4]; 1000 nM): 1.08 ± 0.08
- surviving fraction (OSI-906 [5]; 0.5 nM): 1.21 ± 0.074
- surviving fraction (OSI-906 [5]; 1 nM): 1.18 ± 0.13
- surviving fraction (OSI-906 [5]; 5 nM): 0.829 ± 0.025
- surviving fraction (OSI-906 [5]; 10 nM): 0.987 ± 0.12
- surviving fraction (OSI-906 [5]; 50 nM): 0.695 ± 0.051
- surviving fraction (OSI-906 [5]; 100 nM): 0.665 ± 0.06
- surviving fraction (OSI-906 [5]; 500 nM): 0.697 ± 0.021
- surviving fraction (OSI-906 [5]; 1000 nM): 0.614 ± 0.021
- surviving fraction ([6]; 0.5 nM): 1.01 ± 0.065
- surviving fraction ([6]; 1 nM): 1.18 ± 0.26
- surviving fraction ([6]; 5 nM): 0.8 ± 0.25
- surviving fraction ([6]; 10 nM): 0.923 ± 0.17
- surviving fraction ([6]; 50 nM): 0.703 ± 0.22
- surviving fraction ([6]; 100 nM): 0.682 ± 0.093
- surviving fraction ([6]; 500 nM): 0.579 ± 0.039
- surviving fraction ([6]; 1000 nM): 0.569 ± 0.069
- surviving fraction (YM155 [7]; 0.5 nM): 1.18 ± 0.4
- surviving fraction (YM155 [7]; 1 nM): 1.02 ± 0.032
- surviving fraction (YM155 [7]; 5 nM): 0.744 ± 0.088
- surviving fraction (YM155 [7]; 10 nM): 0.81 ± 0.15
- surviving fraction (YM155 [7]; 50 nM): 0.783 ± 0.052
- surviving fraction (YM155 [7]; 100 nM): 0.705 ± 0.084
- surviving fraction (YM155 [7]; 500 nM): 0.159 ± 0.058
- surviving fraction (YM155 [7]; 1000 nM): 0.0523 ± 0.0084
- surviving fraction (GEFITINIB [8]; 0.5 nM): 1.36 ± 0.4
- surviving fraction (GEFITINIB [8]; 1 nM): 1.21 ± 0.45
- surviving fraction (GEFITINIB [8]; 5 nM): 0.814 ± 0.26
- surviving fraction (GEFITINIB [8]; 10 nM): 0.825 ± 0.2
- surviving fraction (GEFITINIB [8]; 50 nM): 0.649 ± 0.17
- surviving fraction (GEFITINIB [8]; 100 nM): 0.406 ± 0.034
- surviving fraction (GEFITINIB [8]; 500 nM): 0.264 ± 0.033
- surviving fraction (GEFITINIB [8]; 1000 nM): 0.21 ± 0.043
- surviving fraction (CAMPTOTHECIN [9]; 0.5 nM): 1.16 ± 0.13
- surviving fraction (CAMPTOTHECIN [9]; 1 nM): 1.18 ± 0.2
- surviving fraction (CAMPTOTHECIN [9]; 5 nM): 1.01 ± 0.11
- surviving fraction (CAMPTOTHECIN [9]; 10 nM): 0.854 ± 0.18
- surviving fraction (CAMPTOTHECIN [9]; 50 nM): 0.624 ± 0.044
- surviving fraction (CAMPTOTHECIN [9]; 100 nM): 0.329 ± 0.04
- surviving fraction (CAMPTOTHECIN [9]; 500 nM): 0.256 ± 0.054
- surviving fraction (CAMPTOTHECIN [9]; 1000 nM): 0.143 ± 0.037
- area under dose-response curve (PACLITAXEL [10]): 1.9
- area under dose-response curve (CARBOPLATIN [11]): 3.37
- area under dose-response curve [12]: 2.84
- area under dose-response curve (CELECOXIB [13]): 3.37
- area under dose-response curve (OSI-906 [14]): 2.7
- area under dose-response curve [15]: 2.61
- area under dose-response curve (YM155 [16]): 2.35
- area under dose-response curve (GEFITINIB [17]): 2.21
- area under dose-response curve (CAMPTOTHECIN [18]): 2.21
